Test results: patent US20110009381A1, “SOLUBILIZED THIAZOLOPYRIDINES” (Sirtis Pharmaceuticals, Inc., priority 2007, published 2011)

Target: T1, SIRT1 (Homo sapiens, UniProt Q96EB6)
T1 sequence (Q96EB6 1-747): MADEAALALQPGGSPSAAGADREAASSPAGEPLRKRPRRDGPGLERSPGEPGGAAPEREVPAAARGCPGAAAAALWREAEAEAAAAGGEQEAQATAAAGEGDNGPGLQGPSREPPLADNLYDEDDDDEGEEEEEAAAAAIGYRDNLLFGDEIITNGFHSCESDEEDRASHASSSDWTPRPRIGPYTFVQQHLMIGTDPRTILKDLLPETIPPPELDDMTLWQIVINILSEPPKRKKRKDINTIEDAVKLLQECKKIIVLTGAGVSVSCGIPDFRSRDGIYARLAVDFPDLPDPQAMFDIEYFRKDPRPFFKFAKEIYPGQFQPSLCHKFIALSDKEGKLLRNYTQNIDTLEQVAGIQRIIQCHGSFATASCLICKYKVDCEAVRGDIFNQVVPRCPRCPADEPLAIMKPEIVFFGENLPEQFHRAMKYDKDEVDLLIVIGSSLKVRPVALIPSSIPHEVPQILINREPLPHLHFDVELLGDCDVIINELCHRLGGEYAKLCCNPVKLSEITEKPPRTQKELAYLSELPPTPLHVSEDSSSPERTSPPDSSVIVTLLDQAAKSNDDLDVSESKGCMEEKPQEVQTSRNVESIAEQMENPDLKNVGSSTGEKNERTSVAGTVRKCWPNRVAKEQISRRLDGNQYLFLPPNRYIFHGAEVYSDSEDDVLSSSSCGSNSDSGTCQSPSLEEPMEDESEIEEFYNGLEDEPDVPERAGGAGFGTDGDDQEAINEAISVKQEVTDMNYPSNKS
Assay: Mass spectrometry based assay to identify modulators of SIRT1 activity (deacetylation of p53-based acetylated peptide substrate)
Assay type: biochemical
Settings: 10 nM SIRT1, 0.5 μM peptide substrate, 120 μM βNAD+, 25 minutes at 25° C.; for EC1.5: SIRT1 activation
Description: A mass spectrometry based assay was used to identify modulators of SIRT1 activity. The mass spectrometry based assay utilizes a peptide having 20 amino acid residues as follows: Ac-EE-K(biotin)-GQSTSSHSK(Ac)NleSTEG-K(5TMR)-EE-NH2 (SEQ ID NO: 1) wherein K(Ac) is an acetylated lysine residue and Nle is a norleucine. The peptide is labeled with the fluorophore 5TMR (excitation 540 nm/emission 580 nm) at the C-terminus. The sequence of the peptide substrate is based on p53 with several modifications. In addition, the methionine residue naturally present in the sequence was replaced with the norleucine because the methionine may be susceptible to oxidation during synthesis and purification.
The mass spectrometry assay is conducted as follows: 0.5 μM peptide substrate and 120 μM βNAD^+ is incubated with 10 nM SIRT1 for 25 minutes at 25° C. in a reaction buffer (50 mM Tris-acetate pH 8, 137 mM NaCl, 2.7 mM KCl, 1 mM MgCl2, 5 mM DTT, 0.05% BSA). Test compounds may be added to the reaction as described above. The SirT1 gene is cloned into a T7-promoter containing vector and transformed into BL21(DE3). After the 25 minute incubation with SIRT1, 10 μL of 10% formic acid is added to stop the reaction. Reactions are sealed and frozen for later mass spec analysis. Determination of the mass of the substrate peptide allows for precise determination of the degree of acetylation (i.e. starting material) as compared to deacetylated peptide (product).
A control for inhibition of sirtuin activity is conducted by adding 1 μL of 500 mM nicotinamide as a negative control at the start of the reaction (e.g., permits determination of maximum sirtuin inhibition). A control for activation of sirtuin activity is conducted using 10 nM of sirtuin protein, with 1 μL of DMSO in place of compound, to determine the amount of deacetylation of the substrate at a given timepoint within the linear range of the assay. This timepoint is the same as that used for test compounds and, within the linear range, the endpoint represents a change in velocity.
For the above assay, SIRT1 protein was expressed and purified as follows. The SirT1 gene was cloned into a T7-promoter containing vector and transformed into BL21(DE3). The protein was expressed by induction with 1 mM IPTG as an N-terminal His-tag fusion protein at 18° C. overnight and harvested at 30,000×g. Cells were lysed with lysozyme in lysis buffer (50 mM Tris-HCl, 2 mM Tris[2-carboxyethyl]phosphine (TCEP), 10 μM ZnCl2, 200 mM NaCl) and further treated with sonication for 10 min for complete lysis. The protein was purified over a Ni-NTA column (Amersham) and fractions containing pure protein were pooled, concentrated and run over a sizing column (Sephadex S200 26/60 global). The peak containing soluble protein was collected and run on an Ion-exchange column (MonoQ). Gradient elution (200 mM-500 mM NaCl) yielded pure protein. This protein was concentrated and dialyzed against dialysis buffer (20 mM Tris-HCl, 2 mM TCEP) overnight. The protein was aliquoted and frozen at −80° C. until further use.
Sirtuin modulating compounds that activated SIRT1 were identified using the assay described above and are shown below in Table 1. The EC1-5 values for the activating compounds are represented by A′ (EC1.5<250 nM), A (EC1.5≧250 nM and ≦1 uM), B (EC1.5>1 and ≦10 uM), or C (EC1.5>10 uM). The percent maximum fold activation is represented by A (Fold activation≧300%), B (Fold Activation≧150% and <300%), or C (Fold Activation<150%).

| FOLD ACT. (percent maximum fold activation) | EC1.5 | SMILES |
| --- | --- | --- |
| A (Fold activation≧300%) | A′ (EC1.5<250 nM) | Cc1ccn(CCNc2cc(C(=O)Nc3ccccc3-c3nc4cccnc4s3)nc(-c3ccccc3)n2)n1 [Compound 78] |
| B (Fold Activation≧150% and <300%) | B (EC1.5>1 and ≦10 uM) | CSCCNc1cc(C(=O)Nc2ccccc2-c2nc3cccnc3s2)nc(-c2ccccc2)n1 [Compound 45] |
| A (Fold activation≧300%) | A (EC1.5≧250 nM and ≦1 uM) | CCN(CC)CCCOc1cc(C(=O)Nc2ccccc2-c2nc3cccnc3s2)nc(-c2ccccc2)n1 [Compound 93] |
| A (Fold activation≧300%) | B (EC1.5>1 and ≦10 uM) | CN(C)CCNc1cc(C(=O)Nc2ccccc2-c2nc3cccnc3s2)ncn1 [Compound 26] |
| A (Fold activation≧300%) | A (EC1.5≧250 nM and ≦1 uM) | CC(C)NCCNc1cc(C(=O)Nc2ccccc2-c2nc3cccnc3s2)nc(-c2ccccc2)n1 [Compound 52] |
| A (Fold activation≧300%) | B (EC1.5>1 and ≦10 uM) | O=C(Nc1ccccc1-c1nc2cccnc2s1)c1cc(CN2CCCC2)nc(-c2ccccc2)n1 [Compound 11] |
| A (Fold activation≧300%) | A′ (EC1.5<250 nM) | O=C(Nc1ccccc1-c1nc2cccnc2s1)c1cc(NC2CCN(C3CC3)CC2)nc(-c2ccccc2)n1 [Compound 118] |
| A (Fold activation≧300%) | A′ (EC1.5<250 nM) | CS(=O)(=O)N1CCC(Nc2cc(C(=O)Nc3ccccc3-c3nc4cccnc4s3)nc(-c3ccccc3)n2)CC1 [Compound 135] |
| A (Fold activation≧300%) | A (EC1.5≧250 nM and ≦1 uM) | CCN1CCN(c2cc(C(=O)Nc3ccccc3-c3nc4cccnc4s3)nc(-c3ccccc3)n2)CC1=O [Compound 150] |
| B (Fold Activation≧150% and <300%) | A (EC1.5≧250 nM and ≦1 uM) | O=C(Nc1ccccc1-c1nc2cccnc2s1)c1cc(NCc2ccccn2)nc(-c2ccccc2)n1 [Compound 55] |
| A (Fold activation≧300%) | A (EC1.5≧250 nM and ≦1 uM) | CN(C)CCCNc1cc(C(=O)Nc2ccccc2-c2nc3cccnc3s2)nc(-c2ccccc2)n1 [Compound 88] |
| A (Fold activation≧300%) | A (EC1.5≧250 nM and ≦1 uM) | O=C(Nc1ccccc1-c1nc2ccncc2s1)c1cc(NCc2ccncc2)nc(-c2ccccc2)n1 [Compound 32] |
| B (Fold Activation≧150% and <300%) | A′ (EC1.5<250 nM) | O=C(Nc1ccccc1-c1nc2cccnc2s1)c1cc(N2CCOCC2)nc(-c2ccccc2)n1 [Compound 2] |
| A (Fold activation≧300%) | A′ (EC1.5<250 nM) | CC(C)N1CCN(c2cc(C(=O)Nc3ccccc3-c3nc4ccncc4s3)nc(-c3ccccc3)n2)CC1 [Compound 24] |
| A (Fold activation≧300%) | A′ (EC1.5<250 nM) | CC(C)N1CCC(Nc2cc(C(=O)Nc3ccccc3-c3nc4cccnc4s3)nc(-c3ccccc3)n2)CC1 [Compound 114] |
| A (Fold activation≧300%) | A (EC1.5≧250 nM and ≦1 uM) | O=C(Nc1ccccc1-c1nc2ccncc2s1)c1cc(NCc2ccccn2)nc(-c2ccccc2)n1 [Compound 57] |
| B (Fold Activation≧150% and <300%) | C (EC1.5>10 uM) | O=C(Nc1ccccc1-c1nc2cccnc2s1)c1cc(OCCCCO)nc(-c2ccccc2)n1 [Compound 103] |
| C (Fold Activation<150%) | C (EC1.5>10 uM) | O=C(Nc1ccccc1-c1nc2cccnc2s1)c1cc(OCCO)nc(-c2ccccc2)n1 [Compound 80] |
| B (Fold Activation≧150% and <300%) | A (EC1.5≧250 nM and ≦1 uM) | O=C(Nc1ccccc1-c1nc2cccnc2s1)c1cc(N2CCS(=O)(=O)CC2)nc(-c2ccccc2)n1 [Compound 16] |
| A (Fold activation≧300%) | A′ (EC1.5<250 nM) | CCN(CC)CCCNc1cc(C(=O)Nc2ccccc2-c2nc3cccnc3s2)nc(-c2ccccc2)n1 [Compound 81] |
| A (Fold activation≧300%) | A′ (EC1.5<250 nM) | CN(C)CCNCCOc1cc(C(=O)Nc2ccccc2-c2nc3cccnc3s2)nc(-c2ccccc2)c1 [Compound 33] |
| B (Fold Activation≧150% and <300%) | A (EC1.5≧250 nM and ≦1 uM) | O=C(Nc1ccccc1-c1nc2cccnc2s1)c1cc(OC[C@H](O)CO)nc(-c2ccccc2)n1 [Compound 107] |
| A (Fold activation≧300%) | A′ (EC1.5<250 nM) | COCCN(C)c1cc(C(=O)Nc2ccccc2-c2nc3cccnc3s2)nc(-c2ccccc2)n1 [Compound 47] |
| A (Fold activation≧300%) | A′ (EC1.5<250 nM) | CC(C)(C)N1CCC(Nc2cc(C(=O)Nc3ccccc3-c3nc4cccnc4s3)nc(-c3ccccc3)n2)CC1 [Compound 125] |
| A (Fold activation≧300%) | A (EC1.5≧250 nM and ≦1 uM) | COCCNc1cc(C(=O)Nc2ccccc2-c2nc3cccnc3s2)nc(-c2ccccc2)n1 [Compound 15] |
| A (Fold activation≧300%) | A′ (EC1.5<250 nM) | O=C(Nc1ccccc1-c1nc2ccncc2s1)c1cc(NCCN2CCCC2)nc(-c2ccccc2)n1 [Compound 56] |
| A (Fold activation≧300%) | A′ (EC1.5<250 nM) | CC(=O)NCCNc1cc(C(=O)Nc2ccccc2-c2nc3cccnc3s2)nc(-c2ccccc2)n1 [Compound 51] |
| A (Fold activation≧300%) | A′ (EC1.5<250 nM) | CCN1CCC(Nc2cc(C(=O)Nc3ccccc3-c3nc4cccnc4s3)nc(-c3ccccc3)n2)CC1 [Compound 100] |
| A (Fold activation≧300%) | A′ (EC1.5<250 nM) | NCCCNc1cc(C(=O)Nc2ccccc2-c2nc3cccnc3s2)nc(-c2ccccc2)n1 [Compound 84] |
| A (Fold activation≧300%) | A′ (EC1.5<250 nM) | COCCN(C)c1cc(C(=O)Nc2ccccc2-c2nc3ccncc3s2)nc(-c2ccccc2)n1 [Compound 29] |
